From patent publication US12060387B2, “Polypeptide-based shuttle agents for improving the transduction efficiency of polypeptide cargos to the cytosol of target eukaryotic cells, uses thereof, methods and kits relating to same” (priority 2015, dated 2024) come the findings set out here.

Data set [1] is described as follows: Cell toxicity / % cell viability by flow cytometry (cells in total events v. untreated). The data set is classed as cell-based, Human. The following applies: human, HeLa cells, HeLa; for viability at 1 min, 20 µM / viability at 10 s, 50 µM / viability at 1 min, 10 µM / viability at 2 min, 10 µM / viability at 5 min, 10 µM: Protocol B; for viability at 1 min, 20 µM: 1 minute; for viability at 10 s, 50 µM: FIG. 29A, shuttle 50 μM, 10 seconds; for viability at 1 min, 10 µM / viability at 2 min, 10 µM / viability at 5 min, 10 µM: shuttle 10 μM; for viability at 1 min, 10 µM: incubation 1 min; for viability at 2 min, 10 µM: incubation 2 min; for viability at 5 min, 10 µM: incubation 5 min. On the technique in general: In flow cytometry, cells or beads pass a laser one at a time.
Text: (§1) The fluorescence of GFP was quantified using flow cytometry (Accuri C6, Becton, Dickinson and Company (BD)). Untreated cells were used to establish a baseline in order to quantify the increased fluorescence due to the internalization of the fluorescent protein in treated cells. The percentage of cells with a fluorescence signal above the maximum fluorescence of untreated cells, “mean %” or “Pos cells (%)”, is used to identify positive fluorescent cells. “Relative fluorescence intensity (FL1-A)” corresponds to the mean of all fluorescence intensities from each cell with a fluorescent signal after fluorescent protein delivery with the shuttle agent. Also, the events scanned by flow cytometry corresponding to cells (size and granularity) were analyzed. The cellular toxicity (% cell viability) was monitored comparing the percentage of cells in the total events scanned of treated cells comparatively to untreated cells.

In data set [2] the test system is HeLa cells. In words: GFP-NLS transduction efficiency, flow cytometry (Pos cells %, relative fluorescence intensity FL1-A). The data set is classed as cell-based, Human. The following applies: Protocol B, 1 minute; for Mean % cells with GFP signal (±St. Dev.; n = 3), FIG. 29I: shuttle 20 μM, GFP-NLS 5 μM.
A further data set concerns THP-1 cells. Put plainly: HOXB4-WT transduction, real-time PCR of target gene mRNA (Fold over control). The data set is classed as cell-based, human. How it is done: Control and treated cells are transferred to separate sterile 1.5-mL tubes and centrifuged for 5 minutes at 300 g. The cell pellets are resuspended in appropriate buffer to lyse the cells. RNAase-free 70% ethanol is then added followed by mixing by pipetting. The lysates are transferred to an RNeasy™ Mini spin column and centrifuged 30 seconds at 13000 RPM. After several washes with appropriate buffers and centrifugation steps, the eluates are collected in sterile 1.5-mL tubes on ice, and the RNA quantity in each tube is then quantified with a spectrophotometer. For DNase treatment, 2 μg of RNA is diluted in 15 μL of RNase-free water. 1.75 μL of 10× DNase buffer and 0.75 μL of DNase is then added, followed by incubation at 37° C. for 15 minutes. For reverse transcriptase treatment, 0.88 μL of EDTA ([…]) is added, followed by incubation at 75° C. for 5 minutes. In a PCR tube, 0.5 μg of DNase-treated RNA is mixed with 4 μL of iScript™ Reverse transcription Supermix (5×) and […] of nuclease-free water. The mix is incubated in a PCR machine with the following program: 5 min at 25° C., 30 min at 42° C. and 5 min at 85° C. Newly synthesized cDNA is transferred in sterile 1.5-mL tubes and diluted in 2 μL of nuclease-free water. 18 μL per well of a qPCR machine (CFX-96™) mix is then added in a PCR plate for analysis.
Briefly, THP-1 cells were plated at 30 000 cells/well one day before transduction. […] The cells were subjected to real time-PCR analysis as described in Example 14.2 to measure the mRNA levels of a target gene as a marker for HOXB4 activity, which was then normalized to the target gene mRNA levels detected in the negative control cells (no treatment), to obtain a “Fold over control” value. Total RNA levels (ng/μL) were also measured as a marker for cell viability.
Briefly, THP-1 cells were plated at 30 000 cells/well one day before the first time course experiment. […] The cells were subjected to real time-PCR analysis as described in Example 14.2 to measure mRNA levels of a target gene as a marker for HOXB4 activity, which was then normalized to the target gene mRNA levels detected in the negative control cells (no treatment), to obtain a “Fold over control” value. Total RNA levels (ng/μL) were also measured as a marker for cell viability.
Briefly, THP-1 cells were plated at 30 000 cells/well one day before the first time course experiment. […] The cells were subjected to real time-PCR analysis as described in Example 14.2 to measure mRNA levels of a target gene as a marker for HOXB4 activity, which was then normalized to target gene mRNA levels detected in the negative control cells (no treatment), to obtain a “Fold over control” value. Total RNA levels (ng/μL) were also measured as a marker for cell viability. […]
For orientation: In qPCR the cycle at which signal appears reflects the starting amount.

For data set [3], the system named is HeLa cells. Put plainly: Cell toxicity / % cell viability by flow cytometry (cells in total events v. untreated). It counts as cell-based, Human. The following applies: for effect of the variation of the shuttle on cell viability (in words): GFP-NLS 5 μM with 20 μM shuttle variant.
Text: as §1
Assay in data set [4]: as above
Text: as §1
The data set is classed as cell-based, human. The following applies: human, THP-1 cells, THP-1, Protocol C, shuttle 1 μM, GFP-NLS 5 μM, read-out: Cell viability (%) (±St. Dev.; n = 3).

The mark [5] stands for this setting: Cell viability (%) (±St. Dev.; n = 3), FIG. 29I, shuttle 20 μM, GFP-NLS 5 μM, read-out: Cell viability (%) (±St. Dev.; n = 3), FIG. 29I.
The mark [6] stands for this setting: Cell viability (%) (±St. Dev.; n = 3), GFP-NLS 5 μM, read-out: Cell viability (%) (±St. Dev.; n = 3).
The mark [7] stands for this setting: HeLa, Protocol B, shuttle 50 μM, GFP-NLS 5 μM, 10 seconds.
[8] abbreviates: GFP-NLS 5 μM, read-out: Cell viability (%) (±St. Dev.; n = 3), FIG. 29B.
The mark [9] stands for this setting: GFP-NLS 5 μM, read-out: Cell viability (%) (±St. Dev.; n = 3).
Setting [10] is: GFP-NLS 5 μM, read-out: Cell viability (%) (±St. Dev.; n = 3), FIG. 29G.

Where two headings read alike, the source gives them in different places. Where no end group is shown, it is not given here.

With “MHHHHHHKWKLFKKIGAVLKVLTTGYARAAARQARAC [Met-His-CM18-PTD4-Cys]”, in data set [1] (setting [5]), the viability at 1 min, 20 µM was determined as 54.9 ± 3.45%. The “Mean % cells with GFP signal (±St. Dev.; n = 3), FIG. 29I” value (“Mean % cells with GFP signal” for short) in the data set on HeLa cells [2] was 45.6 ± 3.88%.

As to HOXB4-WT alone, the “Fold over control (mean ± St. Dev)” value in the data set on THP-1 cells (Table 14.1, shuttle 0 μM, HOXB4-WT 1.5 μM, 2.5 hours with serum) is listed as 4.3 ± 0.1; in the data set on THP-1 cells (Table 14.2, shuttle 0 μM, HOXB4-WT 1.5 μM, exposure time 2.5 h, serum) it was 3.4 ± 0.3; with THP-1 cells (Table 14.3, shuttle 0.8 μM, HOXB4-WT 0 μM, exposure time 2.5 h, serum), 1 ± 0.14; in the data set with THP-1 cells (Table 14.4, shuttle 0.8 μM, HOXB4-WT 0 μM, exposure time 2.5 h, serum) it was 1 ± 0.11.

Consider “KWKLFKKIGAVLKVLTTGGGSGGGSGGGSGYARAAARQARA [CM18-L3-PTD4]”, for which the “effect of the variation of the shuttle on cell viability (in words)” value (shortened to “effect … on cell viability (in words)”) in the data set with HeLa cells [3] (HeLa, 1 minute, Protocol B) is “increased cell viability”. Further, the “effect of the variation of the shuttle on transduction efficiency (in words)” value in the data set on HeLa cells [2] (GFP-NLS 5 μM with 20 μM shuttle variant) is “did not result in a dramatic loss of transduction efficiency”. Also, in the data set with HeLa cells [2], the “Mean % cells with GFP signal” value is 39.0 ± 2.7%.

Regarding “HHHHHHKWKLFKKIGAVLKVLTTGYGRKKRRQRRR [His-CM18-TAT]”, the viability at 1 h, 1 µM in data set [1] (Cell viability (%) (±St. Dev.; n = 3), FIG. 21B, GFP-NLS 5 μM, shuttle 1 μM, 1 hour, read-out: Cell viability (%) (±St. Dev.; n = 3), FIG. 21B) was found to be 95 ± 3.55%. For the same substance, the viability at 1 h, 3 µM in data set [1] (Cell viability (%) (±St. Dev.; n = 3), FIG. 21B, GFP-NLS 5 μM, shuttle 3 μM, 1 hour, read-out: Cell viability (%) (±St. Dev.; n = 3), FIG. 21B) stood at 91 ± 5.18%. Further, the viability at 1 h, 5 µM in data set [1] (Cell viability (%) (±St. Dev.; n = 3), FIG. 21B, GFP-NLS 5 μM, shuttle 5 μM, 1 hour, read-out: Cell viability (%) (±St. Dev.; n = 3), FIG. 21B) is 86 ± 4.59%. Further, the viability at 10 s, 50 µM in data set [1] (setting [6]) was found to be 35.2 ± 5.7%. Further, the “Cell viability (%) (±St. Dev.; n = 3), FIG. 29E” value (shortened to “Cell viability (%) … FIG. 29E”) with HeLa cells [3] (setting [7]) is listed as 35.2 ± 5.7%.

Consider “HHHHHHKWKLFKKIGAVLKVLTTGYARAAARQARACCCCCC (cysteines drawn unpaired) [His-CM18-PTD4-6Cys]”, for which the viability at 1 min, 20 µM in data set [1] (setting [5]) came to 62 ± 5.76%. Moreover, the “Mean % cells with GFP signal” value in the data set with HeLa cells [2] was 41.3 ± 4.28%.

For “KWKLFKKIGAVLKVLTTGGGSGGGSYARAAARQARA [CM18-L2-PTD4]”, in data set [1] (setting [5]), the viability at 1 min, 20 µM is 64 ± 1.3%. The “effect … on cell viability (in words)” value in the data set with HeLa cells [3] (HeLa, 1 minute, Protocol B) is given as “increased cell viability”.

Regarding “HHHHHHKWKLFKKIGAVLKVLTTGRRRRRRRRR [His-CM18-9Arg]”, in data set [1] (setting [6]), the viability at 10 s, 50 µM stood at 45.8 ± 5.4%. Moreover, the “Cell viability (%) … FIG. 29E” value in the data set with HeLa cells [3] (setting [7]) stood at 45.8 ± 3.53%.

With “HHHHHHKWKLFKKIGAVLKVLTTGGWTLNSAGYLLKINLKALAALAKKIL [His-CM18-Transportan (TPT)]”, the viability at 10 s, 50 µM in data set [1] (setting [6]) amounted to 41.3 ± 3.3%. Besides, in the data set with HeLa cells [3] (setting [7]), the “Cell viability (%) … FIG. 29E” value stood at 41.3 ± 3.29%.

Turning to “YGRKKRRQRRRCKWKLFKKIGAVLKVLTTG [TAT-CM18]”, in data set [1] (setting [6]), the viability at 10 s, 50 µM was 23.5 ± 1.1%. In addition, in the data set with HeLa cells [3] (setting [7]), the “Cell viability (%) (±St. Dev.; n = 3), FIG. 29F” value (shortened to “Cell viability (%) … FIG. 29F”) was 23.5 ± 1.1%.

Consider “YGRKKRRQRRRCWEAKLAKALAKALAKHLAKALAKALKACEA (cysteines drawn unpaired) [TAT-KALA]”, for which, in data set [1] (setting [8]), the viability at 1 min, 10 µM was found to be 93.5 ± 2.7%; the viability at 2 min, 10 µM was 92.1 ± 3.1%; the viability at 5 min, 10 µM came to 86 ± 4.4%. For the same substance, in data set [1] (setting [9]), the viability at 10 s, 50 µM stood at 95.6 ± 4.3%. For the same substance, the “Cell viability (%) … FIG. 29F” value in the data set on HeLa cells [3] (setting [7]) is 95.6 ± 4.3%. Moreover, the viability at 15 s, 1 µM in data set [4] (incubation time 15 sec) came out at 84.6 ± 2.7%. In data set [4] (incubation time 30 sec), the viability at 0.5 min, 1 µM was 70.3 ± 3.2%. Further, the viability at 1 min, 1 µM in data set [4] (incubation time 60 sec) is 82.7 ± 1.4%. Moreover, the viability at 2 min, 1 µM in data set [4] (incubation time 120 sec) was 46.3 ± 4.9%.

For the substance “KWKLFKKIGAVLKVLTTGGGSYARAAARQARA [CM18-L1-PTD4]”, in data set [1] (setting [5]), the viability at 1 min, 20 µM is 50.1 ± 3.8%. The “effect … on cell viability (in words)” value in the data set on HeLa cells [3] (HeLa, 1 minute, Protocol B) is given as “increased cell viability”.

Consider “KWKLFKKIGAVLKVLTTGYARAAARQARA [CM18-PTD4]”, for which the viability at 1 min, 20 µM in data set [1] (cell viability, GFP-NLS 5 μM with 20 μM shuttle, Table 10.3e, read-out: cell viability) amounted to 33.9%. The “Cell viability (%) (±St. Dev.; n = 3), FIG. 29I” value with HeLa cells [3] (HeLa, Protocol B, shuttle 20 μM, GFP-NLS 5 μM, 1 minute) stood at 33.9 ± 3.7%.

As for “YARAAARQARAWEAKLAKALAKALAKHLAKALAKALKACEA [PTD4-KALA]”, in data set [1] (setting [10]), the viability at 1 min, 10 µM was found to be 96.2 ± 3%; the viability at 2 min, 10 µM was 75.3 ± 3.8%; the viability at 5 min, 10 µM stood at 82.4 ± 4.7%. The viability at 10 s, 50 µM in data set [1] (setting [9]) was 91.4 ± 3.67%. In addition, the “Cell viability (%) … FIG. 29F” value in the data set with HeLa cells [3] came to 91.4 ± 3.67%.

In general, viability refers to a per cent measure of how many cells are alive, often set against a control.
